The source of these data is patent US10160747B2, “Compounds and methods for kinase modulation, and indications therefor” (Plexxikon Inc., priority 2016, dated 2018).

For assay [1], the system named is MOLM-14 F691L (endogenous FLT3 ITD and transfected FLT3 F691L). The assay can be described thus: MOLM-14 F691L cell proliferation assay (CellTiter-Glo). The format is cell-based. Particulars: Homo sapiens, MOLM-14, 72 h; 3 d growth, GMean. Summed up:
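Three-day proliferation at 37 °C/5% CO2 of FLT3-ITD MOLM-14 lines with D835Y or F691L mutation, seeded 1×10^4 per well. Compounds at eight points, top 1 μM final, 0.2% DMSO. ATP luminescence (CellTiter-Glo) gives IC50.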

Assay [2] has as its target T1, BA/F3-FLT3-ITD + D835Y (Homo sapiens, UniProt P36888, D835Y, cells depend on it, form not given).
T1 sequence (P36888 with tags, fused parts or gaps INS600HVDFREYEYD/D835Y): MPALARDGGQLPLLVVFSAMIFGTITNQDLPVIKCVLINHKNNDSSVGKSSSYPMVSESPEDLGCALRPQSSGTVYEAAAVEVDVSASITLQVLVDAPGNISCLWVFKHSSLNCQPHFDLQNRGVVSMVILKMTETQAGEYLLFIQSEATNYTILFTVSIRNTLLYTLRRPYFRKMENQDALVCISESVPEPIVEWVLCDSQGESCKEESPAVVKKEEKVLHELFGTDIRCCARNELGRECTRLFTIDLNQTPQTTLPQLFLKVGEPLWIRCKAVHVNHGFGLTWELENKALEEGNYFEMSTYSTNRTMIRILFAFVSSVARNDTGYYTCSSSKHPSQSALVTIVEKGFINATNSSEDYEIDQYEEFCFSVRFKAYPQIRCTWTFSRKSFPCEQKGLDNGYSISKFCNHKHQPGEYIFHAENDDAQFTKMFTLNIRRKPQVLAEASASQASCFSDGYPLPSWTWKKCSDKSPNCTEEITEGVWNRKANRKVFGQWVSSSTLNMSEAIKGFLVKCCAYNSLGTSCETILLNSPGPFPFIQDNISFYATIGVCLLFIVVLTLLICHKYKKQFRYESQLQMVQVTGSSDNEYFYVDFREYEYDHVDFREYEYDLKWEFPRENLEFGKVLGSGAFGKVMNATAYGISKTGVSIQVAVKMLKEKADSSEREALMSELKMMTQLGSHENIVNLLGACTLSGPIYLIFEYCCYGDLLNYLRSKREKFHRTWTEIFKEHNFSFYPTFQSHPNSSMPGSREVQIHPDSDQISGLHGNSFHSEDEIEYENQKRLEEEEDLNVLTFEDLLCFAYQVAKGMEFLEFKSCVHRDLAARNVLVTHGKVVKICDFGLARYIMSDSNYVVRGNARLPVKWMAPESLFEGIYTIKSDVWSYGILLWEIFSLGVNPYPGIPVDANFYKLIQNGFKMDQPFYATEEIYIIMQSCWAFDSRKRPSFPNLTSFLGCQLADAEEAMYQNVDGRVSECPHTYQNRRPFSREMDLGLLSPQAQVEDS
The assay can be described thus: Engineered BA/F3 cell growth assay, FLT3 ITD/D835Y. In kind it is cell-based, murine. Particulars: 3 d growth. The method in brief: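 IC50 derived from CellTiter-Glo ATP luminescence after 3 days at 37 °C, 5% CO2, over eight 1:3 dilutions from 1 μM (0.2% DMSO final). Cells: IL-3-independent murine Ba/F3 expressing full-length FLT3 ITD/D835Y, 1×10^4 per well.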

Structures are written as SMILES. pIC50: −log10 of the molar value.

`O=C(Cc1ccc(-c2cnc(Nc3cnn(C4CC4)c3)nc2)cc1F)Nc1cc(C(F)(F)F)ccn1` [Compound P-0244, 2-[4-[2-[(1-cyclopropylpyrazol-4-yl)amino]pyrimidin-5-yl]-2-fluoro-phenyl]-N-[4-(trifluoromethyl)-2-pyridyl]acetamide] had a pIC50 in assay [1] of 5.00 to 10.00. Also, in assay [2], the GI50 fell in the range of 0.0001 to 10 µM. Compound `COCCn1cc(Nc2ncc(-c3ccc(CC(=O)Nc4cc(C(F)(F)F)ccn4)cc3)cn2)cn1` [Compound P-0222, 2-[4-[2-[[1-(2-methoxyethyl)pyrazol-4-yl]amino]pyrimidin-5-yl]phenyl]-N-[4-(trifluoromethyl)-2-pyridyl]acetamide] showed a negative logarithm of the IC50 (pIC50) in assay [1] of 5.00 to 10.00. In addition, the GI50 in assay [2] is 0.0001 to 10 µM. For the compound `Cc1ncc(NC(=O)Cc2ccc(-c3cnc4[nH]c(C#CC(C)(C)O)cc4c3)cc2)cc1C(F)(F)F` [Compound P-0220, 2-[4-[2-(3-hydroxy-3-methyl-but-1-ynyl)-1H-pyrrolo[2,3-b]pyridin-5-yl]phenyl]-N-[6-methyl-5-(trifluoromethyl)-3-pyridyl]acetamide], the pIC50 in assay [1] is 5.00 to 10.00. Further, the concentration for 50% growth inhibition (GI50) in assay [2] was in the range of 0.0001 to 10 µM. For `O=C(Cc1ccc(-c2cnc(Nc3cnn(C4CC4)c3)nc2)cc1)Nc1ccc(C(F)(F)F)nc1` [Compound P-0235, 2-[4-[2-[(1-cyclopropylpyrazol-4-yl)amino]pyrimidin-5-yl]phenyl]-N-[6-(trifluoromethyl)-3-pyridyl]acetamide], in that order: 5.00 to 10.00 and 0.0001 to 10 µM. In turn, `COCCn1cc(Nc2ncc(-c3ccc(CC(=O)Nc4ccc(C(F)(F)F)nc4)c(F)c3)cn2)cn1` [Compound P-0268, 2-[2-fluoro-4-[2-[[1-(2-methoxyethyl)pyrazol-4-yl]amino]pyrimidin-5-yl]phenyl]-N-[6-(trifluoromethyl)-3-pyridyl]acetamide] gave a pIC50 in assay [1] of 5.00 to 10.00. The GI50 in assay [2] lay within 0.0001 to 10 µM. Consider `O=C(Cc1ccc(-c2cnc(Nc3cnn(C4CC4)c3)nc2)cc1F)Nc1ccc(C(F)(F)F)nc1` [Compound P-0242, 2-[4-[2-[(1-cyclopropylpyrazol-4-yl)amino]pyrimidin-5-yl]-2-fluoro-phenyl]-N-[6-(trifluoromethyl)-3-pyridyl]acetamide], for which the pIC50 in assay [1] is 5.00 to 10.00. In assay [2], the concentration for 50% growth inhibition (GI50) is 0.0001 to 10 µM. Regarding `COc1ncc(NC(=O)Cc2ccc(-c3cnc4[nH]nc(N)c4c3)cc2)cc1C(F)(F)F` [Compound P-0216, 2-(4-(3-amino-1H-pyrazolo[3,4-b]pyridin-5-yl)phenyl)-N-(6-methoxy-5-(trifluoromethyl)pyridin-3-yl)acetamide], in assay [1], the pIC50 was 5.00 to 10.00. The GI50 in assay [2] was in the range of 0.0001 to 10 µM. `Cn1cc(Nc2ncc(-c3ccc(CC(=O)Nc4cncc(C(F)(F)F)c4)cc3F)cn2)cn1` [Compound P-0205, 2-[3-fluoro-4-[2-[(1-methylpyrazol-4-yl)amino]pyrimidin-5-yl]phenyl]-N-[5-(trifluoromethyl)-3-pyridyl]acetamide]: the pIC50 in assay [1] is 5.00 to 10.00. The concentration for 50% growth inhibition (GI50) in assay [2] is 0.0001 to 10 µM. `COc1ncc(NC(=O)Cc2ccc(-c3cnc4[nH]nc(C5CC5)c4c3)cc2)cc1C(F)(F)F` [Compound P-0263, 2-[4-(3-cyclopropyl-1H-pyrazolo[3,4-b]pyridin-5-yl)phenyl]-N-[6-methoxy-5-(trifluoromethyl)-3-pyridyl]acetamide] gave a pIC50 in assay [1] of 5.00 to 10.00. The GI50 in assay [2] is 0.0001 to 10 µM. For `O=C(Cc1ccc(-c2cnc(Nc3cnn(C4CC4)c3)nc2)cc1)Nc1cnc(Cl)c(C(F)(F)F)c1` [Compound P-0233, N-[6-chloro-5-(trifluoromethyl)-3-pyridyl]-2-[4-[2-[(1-cyclopropylpyrazol-4-yl)amino]pyrimidin-5-yl]phenyl]acetamide], in that order: 5.00 to 10.00 and 0.0001 to 10 µM. For `COCCn1cc(Nc2ncc(-c3ccc(CC(=O)Nc4cnc(OC)c(C(F)(F)F)c4)cc3)cn2)cn1` [Compound P-0271, 2-[4-[2-[[1-(2-methoxyethyl)pyrazol-4-yl]amino]pyrimidin-5-yl]phenyl]-N-[6-methoxy-5-(trifluoromethyl)-3-pyridyl]acetamide], in that order: 5.00 to 10.00 and 0.0001 to 10 µM. In turn, `COc1ncc(NC(=O)Cc2ccc(-c3cnc4[nH]c(-c5ccc(C#N)nc5)cc4c3)cc2F)cc1C(F)(F)F` [Compound P-0011, 2-[4-[2-(6-cyano-3-pyridyl)-1H-pyrrolo[2,3-b]pyridin-5-yl]-2-fluoro-phenyl]-N-[6-methoxy-5-(trifluoromethyl)-3-pyridyl]acetamide] showed a pIC50 in assay [1] of 5.00 to 10.00. For the same compound, the 50% growth inhibitory concentration (GI50) in assay [2] was in the range of 0.0001 to 10 µM. For `COc1ncc(NC(=O)Cc2ccc(-c3cnc4[nH]nc(N)c4c3)c(F)c2)cc1C(F)(F)F` [Compound P-0203, 2-[4-(3-amino-1H-pyrazolo[3,4-b]pyridin-5-yl)-3-fluoro-phenyl]-N-[6-methoxy-5-(trifluoromethyl)-3-pyridyl]acetamide], in that order: 5.00 to 10.00 and 0.0001 to 10 µM. As to `CCn1cc(Nc2ncc(-c3ccc(CC(=O)Nc4ccc(C(F)(F)F)nc4)cc3)cn2)cn1` [Compound P-0252, 2-[4-[2-[(1-ethylpyrazol-4-yl)amino]pyrimidin-5-yl]phenyl]-N-[6-(trifluoromethyl)-3-pyridyl]acetamide], in assay [1], the negative-log IC50 (pIC50) is 5.00 to 10.00. The GI50 in assay [2] fell in the range of 0.0001 to 10 µM. For `CCOc1n[nH]c2ncc(-c3ccc(CC(=O)Nc4cnc(OC)c(C(F)(F)F)c4)cc3)cc12` [Compound P-0213, 2-(4-(3-ethoxy-1H-pyrazolo[3,4-b]pyridin-5-yl)phenyl)-N-(6-methoxy-5-(trifluoromethyl)pyridin-3-yl)acetamide], the negative logarithm of the IC50 (pIC50) in assay [1] is 5.00 to 10.00. For the same compound, the GI50 in assay [2] lay in the range of 0.0001 to 10 µM. With `O=C(Cc1ccc(-c2cnc(Nc3cnn(C4CC4)c3)nc2)cc1F)Nc1cnc(Cl)c(C(F)(F)F)c1` [Compound P-0240, N-[6-chloro-5-(trifluoromethyl)-3-pyridyl]-2-[4-[2-[(1-cyclopropylpyrazol-4-yl)amino]pyrimidin-5-yl]-2-fluoro-phenyl]acetamide], the negative logarithm of the IC50 (pIC50) in assay [1] was 5.00 to 10.00. For the same compound, in assay [2], the GI50 was 0.0001 to 10 µM. `CCn1cc(Nc2ncc(-c3ccc(CC(=O)Nc4cnc(OC)c(C(F)(F)F)c4)cc3)cn2)cn1` [Compound P-0253, 2-[4-[2-[(1-ethylpyrazol-4-yl)amino]pyrimidin-5-yl]phenyl]-N-[6-methoxy-5-(trifluoromethyl)-3-pyridyl]acetamide] gave a negative-log IC50 (pIC50) in assay [1] of 5.00 to 10.00. In addition, in assay [2], the GI50 lay in the range of 0.0001 to 10 µM.

In the case of `O=C(Cc1ccc(-c2cnc3[nH]c(-c4ccnc(N5CCOCC5)c4)cc3c2)c(F)c1)Nc1cncc(C(F)(F)F)c1` [Compound P-0201, 2-[3-fluoro-4-[2-(2-morpholino-4-pyridyl)-1H-pyrrolo[2,3-b]pyridin-5-yl]phenyl]-N-[5-(trifluoromethyl)-3-pyridyl]acetamide], the pIC50 in assay [1] is 5.00 to 10.00. The GI50 in assay [2] lay in the range of 0.0001 to 10 µM. In the case of `COc1ncc(NC(=O)Cc2ccc(-c3cnc(Nc4cnn(C5CC5)c4)nc3)cc2)cc1C(F)(F)F` [Compound P-0234, 2-[4-[2-[(1-cyclopropylpyrazol-4-yl)amino]pyrimidin-5-yl]phenyl]-N-[6-methoxy-5-(trifluoromethyl)-3-pyridyl]acetamide], the negative-log IC50 (pIC50) in assay [1] was 5.00 to 10.00. The GI50 in assay [2] was 0.0001 to 10 µM. With `Cn1cnc(Nc2ncc(-c3ccc(CC(=O)Nc4cc(C(F)(F)F)ccn4)cc3F)cn2)c1` [Compound P-0018, 2-[3-fluoro-4-[2-[(1-methylimidazol-4-yl)amino]pyrimidin-5-yl]phenyl]-N-[4-(trifluoromethyl)-2-pyridyl]acetamide], the GI50 in assay [2] fell in the range of 0.0001 to 10 µM. For the compound `Cn1cnc(Nc2ncc(-c3cc(F)c(CC(=O)Nc4cc(C(F)(F)F)ccn4)cc3F)cn2)c1` [Compound P-0020, 2-[2,5-difluoro-4-[2-[(1-methylimidazol-4-yl)amino]pyrimidin-5-yl]phenyl]-N-[4-(trifluoromethyl)-2-pyridyl]acetamide], the GI50 in assay [2] lay in the range of 0.0001 to 10 µM.

As for `O=C(Cc1cc(F)c(-c2cnc(Nc3cnn(C(F)F)c3)nc2)cc1F)Nc1cc(C(F)(F)F)ccn1` [Compound P-0021, 2-[4-[2-[[1-(difluoromethyl)pyrazol-4-yl]amino]pyrimidin-5-yl]-2,5-difluoro-phenyl]-N-[4-(trifluoromethyl)-2-pyridyl]acetamide], the GI50 in assay [2] lay within 0.0001 to 10 µM.
